Laboratory results from PubChem BioAssay AID2060886 (Molecular Pharmacology Branch, DTP, NCI, 2025).
pIC50: −log10 of the molar value.

System: 653999-131-R-J2-PDC complex spheroids, growth inhibition
Test: Anticancer human tumor 653999-131-R-J2-PDC patient-derived lung adenocarcinoma cell line growth inhibition [RAS]
Settings: for viability, T/C: stronger effect = lower value
Text: RAS pathway inhibitors in Combinations in Complex Spheroids
A high-throughput screen of multi-cell type tumor spheroids was designed to identify active combinations of RAS pathway inhibitors and targeted small molecules. Complex spheroids include a stromal component modeled by human endothelial cells (HUVEC) and fibroblasts modeled by human mesenchymal stem cells (MSCs). The concentration ranges selected for each drug and investigational agent were based upon clinically achievable concentrations if the clinical Cmax of the agent was known.
Compounds. The drugs and investigational agents: abemaciclib (NSC768073), cobimetinib (NSC768068), divarasib (GDC6063, NSC841802), docetaxel (NSC628503), GDC-1971 (RLY-1971, NSC841576), gemcitabine (NSC613327), inavolisib (NSC800729), ipatasertib (NSC767898), KB-0742 (NSC834161), MRTX-1133 (NSC836407), osimertinib (NSC779217), RMC-4630 (NSC839698), RMC-6236 (NSC851965), RMC-6291 (NSC852671), Ro-3306 (NSC812927), sapanisertib (NSC764658), SN-38 (NSC673596), staurosporine (NSC755774), SY5609 (NSC837396), and tovorafenib (DAY101, NSC766906), were obtained from the National Cancer Institute (NCI) Developmental Therapeutics Program Chemical Repository. The FDA-approved anticancer drug set is available from the NCI Developmental Therapeutics Program. […] The stock solutions were prepared in dimethyl sulfoxide (DMSO, Sigma-Aldrich, St. Louis, MO, cat. D2650) at 800-fold the tested concentration and stored at -70 degrees C prior to their use. All drugs and investigational agents were tested over a range starting from a high concentration at or near the clinical Cmax and decreasing in half-log increments. If the clinical Cmax for an agent had not been determined, the highest concentration tested was 10 microM.
Cell Culture. All cells were maintained in an incubator at 37 degrees C and 5% CO2 with 95% humidity. The PDC lines were cultured according to standard operating procedures established by the NCI PDMR. All PDCs were thawed and cultured in Matrigel-coated flasks prepared with a working solution of 1X Ham's F-12 nutrient mix, without supplementation (Invitrogen, Waltham, MA, cat. 11765054), 100 U/mL penicillin-streptomycin (Invitrogen, cat. 15140122), and 2.5% Matrigel (Corning Inc., Corning, NY, cat. 354248) for the first three passages. The 362531-283-R-J2-PDC and 782815-120-R-J1-PDC lines were cultured in 6C/Colon 1B media, which includes advanced DMEM/F-12 (Thermo Fisher Scientific, cat. 12634028), 10 mM HEPES (Thermo Fisher Scientific, cat. 15630080), 1X GlutaMAX supplement (Thermo Fisher Scientific, cat. 35050061), 0.1 mg/mL primocin (InvivoGen, San Diego, CA, cat. ant-pm-2), 10% defined fetal bovine serum, heat inactivated (HyClone Laboratories Inc., Logan, UT, cat. SH30070.03HI), 50% L-WRN conditioned media (ATCC, cat. CRL-3276), 1.25 mM N-Acetyl-L-cysteine (Sigma-Aldrich, cat. A9165), 10 mM nicotinamide (Sigma-Aldrich, cat. N0636), 1X B-27 supplement (Thermo Fisher Scientific, cat. 17504044), 1X N-2 supplement (Thermo Fisher Scientific, cat. 17502048), 50 ng/mL human EGF (Thermo Fisher Scientific, cat. PHG0311), and 10 microM Y-27632 dihydrochloride (Tocris Bioscience, cat. 1254). The K12877-001-R-J1-PDC line was cultured in 6I media, which includes all 6C/Colon 1B media plus 10 ng/mL human FGF-10 (PeproTech, cat. 100-26), 1 ng/mL human FGF-2 (PeproTech, cat. 100-18B), 1 µM prostaglandin E2 (Tocris Bioscience, cat. 2296), […] hydrocortisone (Sigma-Aldrich, cat. H4001), and […] bovine insulin (Sigma-Aldrich, cat. I6634). The K86415-001-R-J1-PDC line was cultured in 6D media, which includes all 6C/Colon 1B media components minus the L-WRN conditioned media. The 485176-168-R4-J1-PDC was cultured in PANC media, which includes all 6C/Colon 1B media plus 100 ng/mL human FGF-10 (PeproTech, cat. 100-26), 500 nM SB-431542 (Selleckchem, cat. S1067), and 10 nM gastrin (Tocris Bioscience, cat. 3006). […]

[1] = curve of first compound, second compound 0.000949 µM
[2] = curve of first compound, second compound 0.003 µM
[3] = curve of first compound, second compound 0.00949 µM
[4] = curve of first compound, second compound 0.03 µM
[5] = curve of first compound, second compound 0.0949 µM
[6] = curve of first compound, second compound 0.3 µM
[7] = second compound 0.000949 µM, first compound 0.00316 µM
[8] = second compound 0.000949 µM, first compound 0.01 µM
[9] = second compound 0.000949 µM, first compound 0.0316 µM
[10] = second compound 0.000949 µM, first compound 0.1 µM
[11] = second compound 0.000949 µM, first compound 0.316 µM
[12] = second compound 0.000949 µM, first compound 1 µM
[13] = second compound 0.003 µM, first compound 0.00316 µM
[14] = second compound 0.003 µM, first compound 0.01 µM
[15] = second compound 0.003 µM, first compound 0.0316 µM
[16] = second compound 0.003 µM, first compound 0.1 µM
[17] = second compound 0.003 µM, first compound 0.316 µM
[18] = second compound 0.003 µM, first compound 1 µM
[19] = second compound 0.00949 µM, first compound 0.00316 µM
[20] = second compound 0.00949 µM, first compound 0.01 µM
[21] = second compound 0.00949 µM, first compound 0.0316 µM
[22] = second compound 0.00949 µM, first compound 0.1 µM
[23] = second compound 0.00949 µM, first compound 0.316 µM
[24] = second compound 0.00949 µM, first compound 1 µM
[25] = second compound 0.03 µM, first compound 0.00316 µM
[26] = second compound 0.03 µM, first compound 0.01 µM
[27] = second compound 0.03 µM, first compound 0.0316 µM
[28] = second compound 0.03 µM, first compound 0.1 µM
[29] = second compound 0.03 µM, first compound 0.316 µM
[30] = second compound 0.03 µM, first compound 1 µM
[31] = second compound 0.0949 µM, first compound 0.00316 µM
[32] = second compound 0.0949 µM, first compound 0.01 µM
[33] = second compound 0.0949 µM, first compound 0.0316 µM
[34] = second compound 0.0949 µM, first compound 0.1 µM
[35] = second compound 0.0949 µM, first compound 0.316 µM
[36] = second compound 0.0949 µM, first compound 1 µM
[37] = second compound 0.3 µM, first compound 0.00316 µM
[38] = second compound 0.3 µM, first compound 0.01 µM
[39] = second compound 0.3 µM, first compound 0.0316 µM
[40] = second compound 0.3 µM, first compound 0.1 µM
[41] = second compound 0.3 µM, first compound 0.316 µM
[42] = second compound 0.3 µM, first compound 1 µM
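Also: spheroids exposed to the agents for seven days before the readout.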

SMILES: CCN1CCN(Cc2ccc(Nc3ncc(F)c(-c4cc(F)c5nc(C)n(C(C)C)c5c4)n3)nc2)CC1 + CCn1c(-c2cccnc2C(C)OC)c2c3cc(ccc31)N1CCOC(CC(NC(=O)C(C(C)C)N(C)C(=O)C3(F)CCN(C(=O)C#CC(C)(C)N(C)C)CC3)C(=O)N3CCCC(N3)C(=O)OCC(C)(C)C2)C1
- pIC50 [1]: < 6.00
- pIC50 [2]: < 6.00
- pIC50 [3]: < 6.00
- pIC50 [4]: < 6.00
- pIC50 [5]: < 6.00
- pIC50 [6]: < 6.00
- viability, T/C [7]: 101%
- viability, T/C [8]: 87.8%
- viability, T/C [9]: 75.3%
- viability, T/C [10]: 67.6%
- viability, T/C [11]: 73.2%
- viability, T/C [12]: 78.4%
- viability, T/C [13]: 98.5%
- viability, T/C [14]: 76.9%
- viability, T/C [15]: 75.5%
- viability, T/C [16]: 75%
- viability, T/C [17]: 71.8%
- viability, T/C [18]: 92.9%
- viability, T/C [19]: 105%
- viability, T/C [20]: 99.5%
- viability, T/C [21]: 64.8%
- viability, T/C [22]: 77.6%
- viability, T/C [23]: 80%
- viability, T/C [24]: 82.2%
- viability, T/C [25]: 95.1%
- viability, T/C [26]: 75.7%
- viability, T/C [27]: 79.2%
- viability, T/C [28]: 64.2%
- viability, T/C [29]: 89.9%
- viability, T/C [30]: 79.1%
- viability, T/C [31]: 90.9%
- viability, T/C [32]: 85.6%
- viability, T/C [33]: 79.5%
- viability, T/C [34]: 69.3%
- viability, T/C [35]: 83.7%
- viability, T/C [36]: 81.3%
- viability, T/C [37]: 95.4%
- viability, T/C [38]: 81.6%
- viability, T/C [39]: 73.7%
- viability, T/C [40]: 60.8%
- viability, T/C [41]: 84.6%
- viability, T/C [42]: 77.6%

SMILES: Nc1ccn(C2OC(CO)C(O)C2(F)F)c(=O)n1 (stereo unspecified) + CCn1c(-c2cccnc2C(C)OC)c2c3cc(ccc31)N1CCOC(CC(NC(=O)C(C(C)C)N(C)C(=O)C3(F)CCN(C(=O)C#CC(C)(C)N(C)C)CC3)C(=O)N3CCCC(N3)C(=O)OCC(C)(C)C2)C1
- pIC50 [1]: 7.15
- pIC50 [2]: 7.18
- pIC50 [3]: 7.21
- pIC50 [4]: 7.19
- pIC50 [5]: 7.37
- pIC50 [6]: 7.23
- viability, T/C [7]: 93.8%
- viability, T/C [8]: 74.9%
- viability, T/C [9]: 59.8%
- viability, T/C [10]: 41.4%
- viability, T/C [11]: 49.4%
- viability, T/C [12]: 37.4%
- viability, T/C [13]: 110%
- viability, T/C [14]: 74.8%
- viability, T/C [15]: 57.9%
- viability, T/C [16]: 44.7%
- viability, T/C [17]: 44%
- viability, T/C [18]: 36.1%
- viability, T/C [19]: 93.1%
- viability, T/C [20]: 67.1%
- viability, T/C [21]: 59.7%
- viability, T/C [22]: 45.5%
- viability, T/C [23]: 36.9%
- viability, T/C [24]: 38.2%
- viability, T/C [25]: 93.8%
- viability, T/C [26]: 66.9%
- viability, T/C [27]: 57.7%
- viability, T/C [28]: 50.3%
- viability, T/C [29]: 36%
- viability, T/C [30]: 31.8%
- viability, T/C [31]: 94.5%
- viability, T/C [32]: 64.9%
- viability, T/C [33]: 53.8%
- viability, T/C [34]: 45.6%
- viability, T/C [35]: 37.2%
- viability, T/C [36]: 33.2%
- viability, T/C [37]: 91.5%
- viability, T/C [38]: 78.3%
- viability, T/C [39]: 62.2%
- viability, T/C [40]: 40.1%
- viability, T/C [41]: 33.3%
- viability, T/C [42]: 33.5%

SMILES: C=CC(=O)N1CCN(c2nc(OCC3CCCN3C)nc3c(F)c(-c4nc(N)cc(C)c4C(F)(F)F)c(Cl)cc23)C(C)C1 (stereo unspecified) + CCn1c(-c2cc(N3CCN(C)CC3)cnc2C(C)OC)c2c3cc(ccc31)-c1csc(n1)CC(NC(=O)C1CC1C)C(=O)N1CCCC(N1)C(=O)OCC(C)(C)C2
- pIC50 [1]: < 6.00
- pIC50 [2]: < 6.00
- pIC50 [3]: 7.49
- pIC50 [4]: > 8.50
- pIC50 [5]: > 8.50
- pIC50 [6]: > 8.50
- viability, T/C [7]: 83.2%
- viability, T/C [8]: 82.7%
- viability, T/C [9]: 82.1%
- viability, T/C [10]: 78.4%
- viability, T/C [11]: 92%
- viability, T/C [12]: 86.1%
- viability, T/C [13]: 57.9%
- viability, T/C [14]: 63%
- viability, T/C [15]: 59.1%
- viability, T/C [16]: 65.7%
- viability, T/C [17]: 63.3%
- viability, T/C [18]: 75.6%
- viability, T/C [19]: 50%
- viability, T/C [20]: 57.5%
- viability, T/C [21]: 50.2%
- viability, T/C [22]: 40.4%
- viability, T/C [23]: 40.2%
- viability, T/C [24]: 42.6%
- viability, T/C [25]: 46.5%
- viability, T/C [26]: 35.3%
- viability, T/C [27]: 43.2%
- viability, T/C [28]: 32%
- viability, T/C [29]: 37.3%
- viability, T/C [30]: 34.9%
- viability, T/C [31]: 28.9%
- viability, T/C [32]: 29.4%
- viability, T/C [33]: 26.7%
- viability, T/C [34]: 38.9%
- viability, T/C [35]: 38.6%
- viability, T/C [36]: 35.9%
- viability, T/C [37]: 29.5%
- viability, T/C [38]: 27.5%
- viability, T/C [39]: 21.8%
- viability, T/C [40]: 32.6%
- viability, T/C [41]: 28.3%
- viability, T/C [42]: 26.1%

SMILES: Cc1nc(N2CCC3(CC2)COC(C)C3N)c(CO)nc1Sc1ccnc(N)c1Cl (stereo unspecified)
- viability, T/C (compound 0.0316 µM): 91.2% [middle of 4 runs]
- viability, T/C (compound 0.1 µM): 98.4% [middle of 4 runs]
- viability, T/C (compound 1 µM): 87.6% [middle of 4 runs]
- viability, T/C (compound 3.16 µM): 85.8% [middle of 4 runs]
- pIC50 (curve of compound): < 5.00
